Results as given in paper PMC10882135, “Rapid reaction studies on the chemistry of flavin oxidation in urocanate reductase” (The Journal of Biological Chemistry, 2024).

Assays:
[1] = target: T1, UrdA′ (isolated FAD domain of urocanate reductase) (Shewanella oneidensis, UniProt Q8CVD0); assay: copurification; absorbance spectrum before and after SDS/heat release of FAD; assay type: binding; settings: noncovalent; pH 7
T1 construct: N-terminal FMN domain removed), C-terminal His tag, pET29b, E. coli BL21 (DE3); noncovalent FAD
T1 sequence (Q8CVD0 130-582): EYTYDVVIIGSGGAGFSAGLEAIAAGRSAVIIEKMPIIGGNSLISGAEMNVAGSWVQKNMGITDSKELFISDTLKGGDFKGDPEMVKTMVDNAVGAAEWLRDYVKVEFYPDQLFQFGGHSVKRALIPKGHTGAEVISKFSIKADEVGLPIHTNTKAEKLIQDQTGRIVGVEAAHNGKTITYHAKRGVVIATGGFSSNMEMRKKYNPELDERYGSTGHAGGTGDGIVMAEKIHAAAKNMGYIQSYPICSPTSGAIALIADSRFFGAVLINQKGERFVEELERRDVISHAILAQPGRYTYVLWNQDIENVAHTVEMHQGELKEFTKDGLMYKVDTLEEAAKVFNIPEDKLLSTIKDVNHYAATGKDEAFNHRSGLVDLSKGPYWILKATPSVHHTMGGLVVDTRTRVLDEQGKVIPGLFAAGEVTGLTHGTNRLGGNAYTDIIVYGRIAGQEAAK

Arg411 = Arg411 (UniProt position 411, EELERRDVISH); assay: kinetics (anaerobic stopped-flow spectrophotometry); settings: 4 °C, 100 mM NaCl, 50 mM Bis-Tris propane (pH 6-9) or 50 mM CAPS (pH >9), 10% glycerol, reduced FAD (flavin hydroquinone) enzyme in complex with urocanate, folded (unfolding above pH 10.5 by CD)

Cc1cc2nc3c(=O)[nH]c(=O)nc-3n(C[C@H](O)[C@H](O)[C@H](O)COP(=O)(O)OP(=O)(O)OC[C@H]3O[C@@H](n4cnc5c(N)ncnc54)[C@H](O)[C@@H]3O)c2cc1C [FAD]
copurification; absorbance spectrum before and after SDS/heat release of FAD [1]: extinction coefficient of FAD bound to the variants was then calculated

Urocanate reductase, isolated FAD-binding C-terminal domain (UrdA') (Shewanella oneidensis MR-1)
pKa (Arg411): 9.4 ± 0.1
